# Read-outs that look alike come from different tables or passages of the source.
# Target: T1, G protein-coupled receptor 119 (GPR-119) (Mesocricetus auratus, UniProt A0A1U8CD06)
# T1 construct: hamster-derived β-cells containing G protein-coupled receptor 119 (GPR-119), HIT-T15 cells; host or cells: HIT-T15 (hamster pancreatic β-cells)
# T1 sequence (A0A1U8CD06 1-334): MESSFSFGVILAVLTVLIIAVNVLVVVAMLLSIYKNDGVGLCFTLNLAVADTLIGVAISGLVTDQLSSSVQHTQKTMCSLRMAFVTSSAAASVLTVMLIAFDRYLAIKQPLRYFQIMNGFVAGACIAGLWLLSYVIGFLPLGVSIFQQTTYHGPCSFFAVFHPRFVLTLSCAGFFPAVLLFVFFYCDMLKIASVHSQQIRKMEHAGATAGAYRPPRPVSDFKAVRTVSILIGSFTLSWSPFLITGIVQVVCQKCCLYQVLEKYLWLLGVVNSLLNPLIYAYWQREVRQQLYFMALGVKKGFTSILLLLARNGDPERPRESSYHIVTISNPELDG
# Experiment: cAMP activity in HIT-T15 cells (cAMP dynamic kit, FRET)
# Assay type: cell-based, hamster
# In short: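 Hamster HIT-T15 cells (60,000/well) were treated next day with compound at six concentrations, 0.0032–10 μM, for 1 h at 37° C. Cells were then lysed and cAMP measured by competitive HTRF immunoassay (D2-cAMP, cryptate anti-cAMP). Activity was derived as the change in FRET signal relative to DMSO.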
# [1] = 1 hour at 37° C., six concentrations 0.0032 to 10 μM, read-out: EC50
Structure (SMILES),EC50 [1] [µM],"EC50 (Table 2, read-out: EC50 value) [µM]"
"CC(C)OC(=O)N1CCC(COc2ccc(C3=CCC(C(=O)N4CCCC4)CC3)cc2F)CC1 (stereo not drawn) [Example 401, isopropyl 4-((2-fluoro-4-(4-(pyrrolidine-1-carbonyl)cyclohex-1-enyl)phenoxy)methyl)piperidine-1-carboxylate]",0.034,≤ 0.05
"O=C(Oc1ccccc1)N1CCC(COc2ccc(C3=CCC(C(=O)N4CCCC4)CC3)cc2F)CC1 (stereo not drawn) [Example 403, phenyl 4-((2-fluoro-4-(4-(pyrrolidine-1-carbonyl)cyclohex-1-enyl)phenoxy)methyl)piperidine-1-carboxylate]",0.022,≤ 0.05
"O=C(Oc1ccc([N+](=O)[O-])cc1)N1CCC(COc2ccc(C3=CCC(C(=O)N4CCCC4)CC3)cc2F)CC1 (stereo not drawn) [Example 404, 4-nitrophenyl 4-((2-fluoro-4-(4-(pyrrolidine-1-carbonyl)cyclohex-1-enyl)phenoxy)methyl)piperidine-1-carboxylate]",0.055,
"O=C(OC(C(F)(F)F)C(F)(F)F)N1CCC(COc2ccc(C3=CCC(C(=O)N4CCCC4)CC3)cc2F)CC1 (stereo not drawn) [Example 405, 1,1,1,3,3,3-hexafluoropropan-2-yl 4-((2-fluoro-4-(4-(pyrrolidine-1-carbonyl)cyclohex-1-enyl)phenoxy)methyl)piperidine-1-carboxylate]",0.059,
"CC(OC(=O)N1CCC(COc2ccc(C3=CCC(C(=O)N4CCCC4)CC3)cc2F)CC1)C(F)(F)F (stereo not drawn) [Example 406, 1,1,1-trifluoropropan-2-yl 4-((2-fluoro-4-(4-(pyrrolidine-1-carbonyl)cyclohex-1-enyl)phenoxy)methyl)piperidine-1-carboxylate]",0.036,≤ 0.05
"CC1(OC(=O)N2CCC(COc3ccc(C4=CCC(C(=O)N5CCCC5)CC4)cc3F)CC2)CC1 (stereo not drawn) [Example 408, 1-methylcyclopropyl 4-((2-fluoro-4-(4-(pyrrolidine-1-carbonyl)cyclohex-1-enyl)phenoxy)methyl)piperidine-1-carboxylate]",0.025,≤ 0.05
"O=C(C1CC=C(c2ccc(OCC3CCN(C(=O)C4(C(F)(F)F)CCCC4)CC3)c(F)c2)CC1)N1CCCC1 (stereo not drawn) [Example 409, (4-(3-fluoro-4-((1-(1-(trifluoromethyl)cyclopentanecarbonyl)piperidin-4-yl)methoxy)phenyl)cyclohex-3-enyl)(pyrrolidin-1-yl)methanone]",0.062,
"CON=C1CCN(C(=O)C2CC=C(c3ccc(OCC4CCN(c5nc(C(C)C)no5)CC4)cc3)CC2)CC1 (stereo not drawn) [Example 410, (4-(4-((1-(3-isopropyl-1,2,4-oxadiazol-5-yl)piperidin-4-yl)methoxy)phenyl)cyclohex-3-enyl)(4-(methoxyimino)piperidin-1-yl)methanone]",0.014,
"CC(C)c1noc(N2CCC(COc3ccc(C4=CCC(C(=O)N5CCC(=NO)CC5)CC4)cc3F)CC2)n1 (stereo not drawn) [Example 411, (4-(3-fluoro-4-((1-(3-isopropyl-1,2,4-oxadiazol-5-yl)piperidin-4-yl)methoxy)phenyl)cyclohex-3-enyl)(4-(hydroxyimino)piperidin-1-yl)methanone]",0.015,≤ 0.05
"CCCNC(=O)N1CCN(C(=O)C2CC=C(c3ccc(OCC4CCN(c5ncc(CC)cn5)CC4)cc3)CC2)CC1 (stereo not drawn) [Example 412, 4-(4-(4-((1-(5-ethylpyrimidin-2-yl)piperidin-4-yl)methoxy)phenyl)cyclohex-3-enecarbonyl)-N-propylpiperazine-1-carboxamide]",0.037,≤ 0.05
"CCc1cnc(N2CCC(COc3ccc(C4=CCC(C(=O)N5CCN(C(=O)NC(C)C)CC5)CC4)cc3)CC2)nc1 (stereo not drawn) [Example 413, 4-(4-(4-((1-(5-ethylpyrimidin-2-yl)piperidin-4-yl)methoxy)phenyl)cyclohex-3-enecarbonyl)-N-isopropylpiperazine-1-carboxamide]",0.025,≤ 0.05
"CCc1cnc(N2CCC(COc3ccc(C4=CCC(C(=O)N5CCN(C(=O)C=C(C)C)CC5)CC4)cc3)CC2)nc1 (stereo not drawn) [Example 414, 1-(4-(4-(4-((1-(5-ethylpyrimidin-2-yl)piperidin-4-yl)methoxy)phenyl)cyclohex-3-enecarbonyl)piperazin-1-yl)-3-methylbut-2-en-1-one]",0.027,≤ 0.05
"CCc1cnc(N2CCC(COc3ccc(C4=CCC(C(=O)N5CCCCC5)CC4)cc3C)CC2)nc1 (stereo not drawn) [Example 415, (4-(4-((1-(5-ethylpyrimidin-2-yl)piperidin-4-yl)methoxy)-3-methylphenyl)cyclohex-3-enyl)(piperidin-1-yl)methanone]",0.055,
"CCc1cnc(N2CCC(COc3ccc(C4=CCC(C(=O)N5CCCC5)CC4)cc3C)CC2)nc1 (stereo not drawn) [Example 416, (4-(4-((1-(5-ethylpyrimidin-2-yl)piperidin-4-yl)methoxy)-3-methylphenyl)cyclohex-3-enyl)(pyrrolidin-1-yl)methanone]",0.075,
"CCc1cnc(N2CCC(COc3ccc(C4=CCC(C(=O)N5CCOCC5)CC4)cc3C)CC2)nc1 (stereo not drawn) [Example 417, (4-(4-((1-(5-ethylpyrimidin-2-yl)piperidin-4-yl)methoxy)-3-methylphenyl)cyclohex-3-enyl)(morpholino)methanone]",0.05,≤ 0.05
"CCc1cnc(N2CCC(COc3ccc(C4=CCC(C(=O)N5CCSCC5)CC4)cc3C)CC2)nc1 (stereo not drawn) [Example 418, (4-(4-((1-(5-ethylpyrimidin-2-yl)piperidin-4-yl)methoxy)-3-methylphenyl)cyclohex-3-enyl)(thiomorpholino)methanone]",0.035,≤ 0.05
"Cn1nnnc1N1CCC(COc2ccc(C3=CCC(C(=O)N4CCCC4)CC3)cc2F)CC1 (stereo not drawn) [Example 420, (4-(3-fluoro-4-((1-(1-methyl-1H-tetrazol-5-yl)piperidin-4-yl)methoxy)phenyl)cyclohex-3-enyl)(pyrrolidin-1-yl)methanone]",0.11,
"O=C(C1CC=C(c2ccc(OCC3CCN(C(=O)C4(C(F)(F)F)CC4)CC3)c(F)c2)CC1)N1CCCC1 (stereo not drawn) [Example 421, (4-(3-fluoro-4-((1-(1-(trifluoromethyl)cyclopropanecarbonyl)piperidin-4-yl)methoxy)phenyl)cyclohex-3-enyl)(pyrrolidin-1-yl)methanone]",0.053,
"CCc1cnc(N2CCC(COc3ccc(C4=CCC(C(=O)N5CCOCC5)CC4)c(F)c3)CC2)nc1 (stereo not drawn) [Example 422, (4-(4-((1-(5-ethylpyrimidin-2-yl)piperidin-4-yl)methoxy)-2-fluorophenyl)cyclohex-3-enyl)(morpholino)methanone]",0.018,≤ 0.05
"CCc1cnc(N2CCC(COc3ccc(C4=CCC(C(=O)N5CCSCC5)CC4)c(F)c3)CC2)nc1 (stereo not drawn) [Example 423, (4-(4-((1-(5-ethylpyrimidin-2-yl)piperidin-4-yl)methoxy)-2-fluorophenyl)cyclohex-3-enyl)(thiomorpholino)methanone]",0.019,≤ 0.05
"CCc1cnc(N2CCC(COc3ccc(C4=CCC(C(=O)N5CCC(C#N)CC5)CC4)c(F)c3)CC2)nc1 (stereo not drawn) [Example 424, 1-(4-(4-((1-(5-ethylpyrimidin-2-yl)piperidin-4-yl)methoxy)-2-fluorophenyl)cyclohex-3-enecarbonyl)piperidine-4-carbonitrile]",0.021,≤ 0.05
"CCc1cnc(N2CCC(COc3ccc(C4=CCC(C(=O)N5CCC5)CC4)c(F)c3)CC2)nc1 (stereo not drawn) [Example 425, azetidin-1-yl(4-(4-((1-(5-ethylpyrimidin-2-yl)piperidin-4-yl)methoxy)-2-fluorophenyl)cyclohex-3-enyl)methanone]",0.048,≤ 0.05
"CCc1cnc(N2CCC(COc3ccc(C4=CCC(C(=O)N5CCCCC5)CC4)c(F)c3)CC2)nc1 (stereo not drawn) [Example 426, (4-(4-((1-(5-ethylpyrimidin-2-yl)piperidin-4-yl)methoxy)-2-fluorophenyl)cyclohex-3-enyl)(piperidin-1-yl)methanone]",0.0067,≤ 0.05
"CCc1cnc(N2CCC(COc3ccc(C4=CCC(C(=O)N5CCC[C@@H]5CO)CC4)c(F)c3)CC2)nc1 (stereo partly drawn) [Example 427, (4-(4-((1-(5-ethylpyrimidin-2-yl)piperidin-4-yl)methoxy)-2-fluorophenyl)cyclohex-3-enyl)((R)-2-(hydroxymethyl)pyrrolidin-1-yl)methanone]",0.032,≤ 0.05
"CCc1cnc(N2CCC(COc3ccc(C4=CCC(C(=O)N5CCN(C)CC5)CC4)cc3F)CC2)nc1 (stereo not drawn) [Example 428, (4-(4-((1-(5-ethylpyrimidin-2-yl)piperidin-4-yl)methoxy)-3-fluorophenyl)cyclohex-3-enyl)(4-methylpiperazin-1-yl)methanone]",0.07,
"CCc1cnc(N2CCC(COc3ccc(C4=CCC(C(=O)N5CCC(O)CC5)CC4)c(F)c3)CC2)nc1 (stereo not drawn) [Example 431, (4-(4-((1-(5-ethylpyrimidin-2-yl)piperidin-4-yl)methoxy)-2-fluorophenyl)cyclohex-3-enyl)(4-hydroxypiperidin-1-yl)methanone]",0.027,≤ 0.05
"CCc1cnc(N2CCC(COc3ccc(C4=CCC(C(=O)N5CCC(CO)CC5)CC4)c(F)c3)CC2)nc1 (stereo not drawn) [Example 432, (4-(4-((1-(5-ethylpyrimidin-2-yl)piperidin-4-yl)methoxy)-2-fluorophenyl)cyclohex-3-enyl)(4-(hydroxymethyl)piperidin-1-yl)methanone]",0.029,≤ 0.05

# Source: patent US10723699B2 (Hyundai Pharm Co., Ltd., priority 2015, dated 2020)
